One data set addresses stored human RBCs (Homo sapiens, UniProt P68871+P69905). The data set is described as follows: Outdated blood studies: oxygen dissociation curves of stored red blood cells. It counts as cell-based. To be noted: for p50 / ΔY [Y(90%)-Y(40%)]: 40-day-old stored human RBCs. The procedure:
Outdated Blood Studies. For the outdated blood studies, 40-day-old packed red cells (80% hematocrit) were obtained from the blood bank at the Medical College of Virginia, Richmond, Va. The cells had been stored in Adsol formulation at 1°-4° C., pH 6.84. Fresh red cells obtained from volunteers were used for the control studies in Table III. The fresh red blood cells were centrifuged and washed with saline, pH 6.8. The oxygen dissociation curves were recorded on an Aminco Hem-O-Scan (Travenol Laboratories).
Outdated Blood Studies. The capability of RSR-13 to restore the oxygen affinity of stored blood was investigated. The procedure involved measurement of the oxygen equilibrium curves on red cell suspensions, which were stored in Adsol formulations at 4° C., in either the absence (controls) or presence of RSR-13. Table 3 presents the p50 (mmHg) and ΔY (%) [Y(90%)-Y(40%)] for outdated red blood cell suspensions (forty days) in the presence or absence of RSR-13.

A further data set relates to human red cells. The data set is described as follows: Hemolysis of human red cells in vitro. In kind it is cell-based.
In another data set the test system is rat erythrocytes. Nature of the data set: Hemolysis of rat erythrocytes.
The test system of a further data set is bovine red cells. The data set is described as follows: Hemolysis of bovine red cells in vitro. In kind it is cell-based.

Entries after “also recorded” stand apart in the source; their conditions may differ.

Chain of stored human RBCs (P69905 whole entry): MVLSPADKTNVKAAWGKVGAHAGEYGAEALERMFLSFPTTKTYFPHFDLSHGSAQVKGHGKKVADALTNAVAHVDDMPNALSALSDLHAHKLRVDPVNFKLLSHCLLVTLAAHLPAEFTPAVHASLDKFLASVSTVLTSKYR
Chain of stored human RBCs (P68871 whole entry): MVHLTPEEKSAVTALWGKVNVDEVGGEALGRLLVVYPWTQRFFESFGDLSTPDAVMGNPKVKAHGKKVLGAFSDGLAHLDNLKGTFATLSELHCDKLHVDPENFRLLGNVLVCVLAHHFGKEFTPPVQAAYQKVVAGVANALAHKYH

Regarding `Cc1cc(C)cc(NC(=O)Cc2ccc(OC(C)(C)C(=O)O)cc2)c1` [RSR-13], the “pH of RBC solution versus untreated samples” value at stored human RBCs (4 mM) is “higher than that of untreated samples”. Further, the “restoration / preservation of oxygen transport capabilities” value on stored human RBCs (40-day-old RBC, 1 mM, or added prior to measurements or during storage) was “able to restore, to near normal the oxygen transport capabilities (p50 and ΔY) of 40-day-old red blood cells; also recorded: preserved the oxygen delivery capabilities of red cell hemoglobin”. Further, on stored human RBCs (1 mM), the p50 is given as 39 mm Hg and the “ΔY [Y(90%)-Y(40%)]” value is recorded as 37%. On stored human RBCs (2 mM), the p50 is on record as 45 mm Hg and the “ΔY [Y(90%)-Y(40%)]” value amounted to 40%. Besides, the hemolysis result at stored human RBCs (stored human red cells, end of experiments) was “no indication of hemolysis”.
For `CC(C)(Oc1ccc(CC(=O)Nc2cc(Cl)cc(Cl)c2)cc1)C(=O)O` [RSR-4, 2-[4-[[(3,5-dichloroanilino)carbonyl]methyl]phenoxy]-2-methylpropionic acid], the hemolysis entry was “No hemolysis” in the data set on human red cells, “Significant hemolysis” in the data set with rat erythrocytes and “No hemolysis” with bovine red cells.

(Values after patent publication US5661182A, “Method for lowering oxygen affinity of hemoglobin in redcell suspensions, in whole blood and in vivo” (Virginia Commonwealth University, priority 1995, dated 1997).)
